The NIST ThermoML archive (doi:10.1016/j.fluid.2013.09.022)

Assay: xn = mol fraction of the nth substance listed
Conditions: Gas, isochoric method

F/C=C/C(F)(F)F [trans-1,3,3,3-tetrafluoropropene] + O=C=O
Conditions	molar volume [m3/mol]
282.98 K, 1378 kPa, x2 = 0.859	0.00149
292.75 K, 1458.4 kPa, x2 = 0.859	0.001491
293.11 K, 1207.5 kPa, x2 = 0.733	0.001776
293.15 K, 1053.5 kPa, x2 = 0.642	0.002057
302.65 K, 741.2 kPa, x2 = 0.254	0.002778
302.78 K, 834.7 kPa, x2 = 0.331	0.002626
302.95 K, 1530.5 kPa, x2 = 0.859	0.001492
303.12 K, 1086.9 kPa, x2 = 0.563	0.002066
303.12 K, 1281.1 kPa, x2 = 0.733	0.001777
303.15 K, 934.1 kPa, x2 = 0.459	0.002372
303.19 K, 1105.4 kPa, x2 = 0.642	0.002058
313.09 K, 773.6 kPa, x2 = 0.155	0.002926
313.1 K, 879.9 kPa, x2 = 0.331	0.002627
313.1 K, 1598.3 kPa, x2 = 0.859	0.001492
313.11 K, 824.7 kPa, x2 = 0.254	0.00278
313.11 K, 979 kPa, x2 = 0.459	0.002373
313.14 K, 1137.1 kPa, x2 = 0.563	0.002067
313.15 K, 1337.5 kPa, x2 = 0.733	0.001778
313.18 K, 1155.7 kPa, x2 = 0.642	0.002059
323.03 K, 1183.9 kPa, x2 = 0.563	0.002067
323.04 K, 918.1 kPa, x2 = 0.331	0.002628
323.06 K, 861.2 kPa, x2 = 0.254	0.002781
323.06 K, 1392.7 kPa, x2 = 0.733	0.001778
323.07 K, 808.6 kPa, x2 = 0.155	0.002928
323.07 K, 1661.1 kPa, x2 = 0.859	0.001493
323.09 K, 1019.8 kPa, x2 = 0.459	0.002374
323.12 K, 1201.6 kPa, x2 = 0.642	0.00206
332.99 K, 1059.7 kPa, x2 = 0.459	0.002375
333.02 K, 897.5 kPa, x2 = 0.254	0.002782
333.03 K, 1246.4 kPa, x2 = 0.642	0.002061
333.04 K, 1723.3 kPa, x2 = 0.859	0.001494
333.05 K, 843.8 kPa, x2 = 0.155	0.002929
333.07 K, 955.4 kPa, x2 = 0.331	0.002629
333.08 K, 1445.3 kPa, x2 = 0.733	0.001779
333.15 K, 1230.3 kPa, x2 = 0.563	0.002068
342.9 K, 1274.8 kPa, x2 = 0.563	0.002069
342.93 K, 1098.9 kPa, x2 = 0.459	0.002376
343.01 K, 1497.2 kPa, x2 = 0.733	0.00178
343.02 K, 991.5 kPa, x2 = 0.331	0.00263
343.05 K, 877.3 kPa, x2 = 0.155	0.00293
343.06 K, 1785.7 kPa, x2 = 0.859	0.001494
343.07 K, 1291.7 kPa, x2 = 0.642	0.002062
343.2 K, 933 kPa, x2 = 0.254	0.002783
352.96 K, 1140 kPa, x2 = 0.459	0.002377
353.01 K, 1320.4 kPa, x2 = 0.563	0.00207
353.02 K, 910 kPa, x2 = 0.155	0.002931
353.03 K, 1336.3 kPa, x2 = 0.642	0.002062
353.03 K, 1847.2 kPa, x2 = 0.859	0.001495
353.1 K, 1027.7 kPa, x2 = 0.331	0.002631
353.12 K, 967.3 kPa, x2 = 0.254	0.002784
353.14 K, 1549.7 kPa, x2 = 0.733	0.001781
362.89 K, 1178.4 kPa, x2 = 0.459	0.002378
362.94 K, 1380.5 kPa, x2 = 0.642	0.002063
363.03 K, 1000.8 kPa, x2 = 0.254	0.002786
363.05 K, 1365.6 kPa, x2 = 0.563	0.002071
363.08 K, 942.8 kPa, x2 = 0.155	0.002933
363.08 K, 1908.8 kPa, x2 = 0.859	0.001496
363.12 K, 1601.3 kPa, x2 = 0.733	0.001781
363.14 K, 1063.4 kPa, x2 = 0.331	0.002632
